Source: patent US10300053B2, “Quinoline carboxamides for use in the treatment of leukemia” (Active Biotech AB, priority 2014, dated 2019)

Legend:
[1] = test system: AML; settings: 0.2 mg/kg body weight twice weekly for 2 years following ABMT for AML in remission; cited from earlier work
[2] = test system: B-cell leukemia (BCL1) cells; settings: BALB/c mice inoculated with BCL1 cells; cited from earlier work
[3] = test system: AL-7015-P2 leukemic cells; assay: Patient Derived Xenograft (PDX) model AL-7015 of acute lymphocytic leukemia; assay type: in vivo, NOD/SCID mice
Protocol: Tasquinimod was tested in a Patient Derived Xenograft (PDX) model AL-7015 provided by Crown Bioscience In. (www.crownbio.com). Cells derived from a patient with B-cell ALL were used. On Day 0, NOD/SCID mice were inoculated i.v. with 70×10^6 AL-7015-P2 leukemic cells per mouse. From day 1 to termination mice were treated with tasquinimod ad lib. in the drinking water at 30 mg/kg. Mice were terminated, as soon as any sign of morbidity was observed. The median survival time for the vehicle group was 51 days, while it was 99 days for the treatment group (p<0.0001) (FIG. 2). In the treatment group, the tumor burden remained close to zero for at least 10 weeks, long after the vehicle group had reached 100% tumor burden (FIG. 3).

SMILES | benefit over placebo regarding relapse [1] | benefit over placebo regarding survival [1] | impact on graft survival [2] | impact on graft versus leukemia (GVL) effects [2] | median survival time ([3]; 30 mg/kg ad lib. in drinking water from day 1 to termination, vehicle group 51 days, p<0.0001) [days] | tumor burden ([3]; 30 mg/kg in drinking water, for at least 10 weeks, long after the vehicle group had reached 100% tumor burden)
CN(C(=O)c1c(O)c2ccccc2n(C)c1=O)c1ccccc1 [Roquinimex, 4-hydroxy-N, 1-dimethyl-2-oxo-N-phenyl-1,2-dihydroquinoline-3-carboxamide] | no benefit | no benefit | no impact | no impact |  | 
COc1cccc2c1c(O)c(C(=O)N(C)c1ccc(C(F)(F)F)cc1)c(=O)n2C [tasquinimod, 4-hydroxy-5-methoxy-N,1-dimethyl-2-oxo-N-[4-(trifluoromethyl)phenyl]-1,2-dihydroquinoline-3-carboxamide] |  |  |  |  | 99 | close to zero
